What all share (format): in vivo, Xenopus tropicalis
Series [1] relates to Xenopus embryos. In words: Gastrulation scoring (incomplete blastopore closure) in treated or kcnh6-depleted embryos. The note with it: for inability to complete gastrulation: kcnh6 depletion, injected at one-cell stage. The protocol:
All injections of Xenopus embryos were performed at the one-cell stage using a fine glass needle and Picospritzer system. A kcnh6 translation blocking (kcnh6 MO, 5′-[…]-3′, SEQ ID NO:1) and a scrambled morpholino oligonucleotide were obtained from Gene Tools LLC and injected at 10 ng to deplete kcnh6 or as a control, respectively. CRISPR sgRNAs for kcnh6 targeted either exon 3 or exon 4 based on the v7.1 gene model of the X. tropicalis genome (CRex3: 5′-[…]-3′, SEQ ID NO:2 and CRex4: 5′-[…]-3′, SEQ ID NO:3). CRISPR sgRNAs for cacna1c (5′-[…]-3′, SEQ ID NO:4) and cacna1g (5′-[…]-3′, SEQ ID NO:5) were designed from the v7.1 model of the Xenopus tropicalis genome. For F0 CRISPR knockdown, embryos were injected with 1.5 ng Cas9 Protein (PNA-Bio) and 400 pg of targeting sgRNA and raised to desired stages. […] Full length human KCNH6 (NM 030779.3; cloned in pCS107), GCaMP6 (subcloned in pCSDest) and mCherry cDNAs (Addgene #34935; in pCS2+), were used to generate capped mRNAs in vitro by first linearizing with appropriate restriction enzymes and then transcribing with the mMessage machine kit (Ambion). mRNAs were injected at 3 pg (human KCNH6), 150 pg (GCaMP6) and 150 pg (mCherry) per embryo. Embryos were raised at 21° C. to allow time for sufficient expression levels at blastula/gastrula stages.
(§1) Normal embryonic medium is 1/9× modified Ringer's (MR) containing 11 mM NaCl, 0.2 mM KCl, 0.2 mM CaCl2), 0.1 mM Mg2Cl and 0.55 mM HEPES. To allow Ergtoxin to penetrate the embryos, the present study manually removed the vitelline envelope of stage 8 embryos and incubated embryos in 1/9×MR containing 50 nM Ergtoxin (Alomone STE-450) until stage 12. Embryos were then transferred back into 1/9×MR lacking Ergtoxin to develop until stage 45 in order to score organ situs. Barium chloride was applied into the medium at 20 mM and embryos were thoroughly rinsed in 1/9×MR after each incubation period for further development in Ba2+-free medium. For extracellular K^+ manipulations, the KCl concentration in 1/9×MR was modified from 0.2 mM (normal) to 20 mM (high) or 0 mM (low). The ionophore valinomycin (ACROS) and L-type VGCC blocker Nifedipine (ACROS) were diluted in DMSO as stock solutions and applied to embryos in 1/9×MR at 2 nM and 10 μM respectively. Treatments performed during gastrulation were applied from stage 8 through stage 12, and embryos were then rinsed thoroughly and returned into 1/9×MR. For rapamycin, the present study created a standard stock solution of 50 mg/ml in DMSO. The stock solution was diluted 1:2500 in the appropriate embryonic media (final 20 μg/ml). Embryos were treated at stage 7 and then fixed at stage 11 for in situ hybridization.
(§2) In experiments where embryos were evaluated for phenotypes and scored (gastrulation, left-right patterning, in situ hybridizations) the present study carried out three to five biological replicates and Fisher's exact test to evaluate statistical significance. The animal cap experiment was performed twice with a total score of four to eight animal caps per experiment. For the calcium transient analyses, data was collected from three to five embryos in each experiment in three independent experiments, and statistical analyses on GCaMP/mCherry fluorescence intensity as well as Ca^2+ transient area were performed using student's t-test. For whole cell electrophysiological recordings, three to five embryos (two cells each) were examined for their membrane potential and statistical significance was tested by student's t-test. Graphs were designed using GraphPad Prism software. Models were created with BioRender.com.

Series [2] concerns Xenopus embryos. In words: Organ situs (left-right patterning) scoring in stage 45 tadpoles. Conditions: for abnormal organ situs: kcnh6 depletion, injected at one-cell stage. How it is done:
Stage 45 Xenopus embryos were paralyzed with benzocaine or tricaine and scored with a light stereomicroscope. Cardiac looping was determined by position of the outflow tract; D-loop: rightward, L-loop: leftward; A-loop: midline. Normal intestinal looping was scored as counter-clockwise rotation of the gut, while abnormal intestinal looping was scored as completely inverse gut rotation (clockwise) or complete lack of looping (un-looped). While a completely inverted gut rotation is clearly an abnormality of LR patterning, an unlooped gut is less clear so the present study only considered an unlooped gut as abnormal situs when combined with abnormal placement (left-sided or midline) of the gall bladder. To quantify total abnormal organ situs, each tadpole was counted only once, regardless of whether multiple organs were affected.
as §1, §2

Series [3] relates to Xenopus embryos. In words: Whole mount in situ hybridization for germ layer and pluripotency markers. The note with it: for expression of ectodermin and myf5 on co-depletion in kcnh6 depleted embryos: CRISPR co-depletion. From the text: In order to generate a full-length antisense probe for X. tropicalis kcnh6, kcnh6 cDNA was cloned from stage 45 tadpole whole mRNA using primers […] ID NO:10) and […] ID NO:11) (XM_012952904.1). It was noted that kcnh6 had been misannotated as kcnh2 in the v7.1 model of the X. tropicalis genome (The present study used NCBI Annotation XP_012808358.2 to identify KCNH6). […] GRPs were dissected post fixation and prior to dehydration to detect dandy. To detect putative gene expression in the prospective endoderm (mixer, vegT, kcnh6) gastrula stage embryos were bisected to facilitate better probe access. Briefly, whole mount in situ hybridization of digoxigenin-labeled antisense probes was performed overnight, the labelled embryos were then washed, incubated with anti-digoxigenin-AP Fab fragments (Roche 11093274910), and signal was detected using BM-purple (Roche 11442074001). Normal embryonic medium is 1/9× modified Ringer's (MR) containing 11 mM NaCl, 0.2 mM KCl, 0.2 mM CaCl2), 0.1 mM Mg2Cl and 0.55 mM HEPES. […] For extracellular K^+ manipulations, the KCl concentration in 1/9×MR was modified from 0.2 mM (normal) to 20 mM (high) or 0 mM (low). […] For rapamycin, the present study created a standard stock solution of 50 mg/ml in DMSO. The stock solution was diluted 1:2500 in the appropriate embryonic media (final 20 μg/ml). […] In experiments where embryos were evaluated for phenotypes and scored (gastrulation, left-right patterning, in situ hybridizations) the present study carried out three to five biological replicates and Fisher's exact test to evaluate statistical significance. The animal cap experiment was performed twice with a total score of four to eight animal caps per experiment. […] For whole cell electrophysiological recordings, three to five embryos (two cells each) were examined for their membrane potential and statistical significance was tested by student's t-test. Graphs were designed using GraphPad Prism software. Models were created with BioRender.com.

Where [4] appears, read: nifedipine-treated (10 μM) kcnh6 CR embryos.
The mark [5] stands for this setting: nifedipine-treated (10 μM) kcnh6 MO embryos.

Consider “CR-ex3: CRISPR sgRNA targeting kcnh6 exon 3, SEQ ID NO:2, injected with Cas9 protein (guide GGAATAAGGGGTGAAGACAGCGG; sgRNA injected with Cas9 protein, chemistry not given here; the letters are possibly those of the target site)”, for which the “inability to complete gastrulation” value in series [1] is 27±4%. The compound further yielded an abnormal organ situs in series [2] of 43±12%.

With “CR-ex4: CRISPR sgRNA targeting kcnh6 exon 4, SEQ ID NO:3, injected with Cas9 protein (guide AGGGCGCTCTACATTTCCAATGG; sgRNA injected with Cas9 protein, chemistry not given here; the letters are possibly those of the target site)”, the “inability to complete gastrulation” value in series [1] came out at 29±5%. In addition, the abnormal organ situs in series [2] is recorded as 19±1%.

Regarding “cacna1c: CRISPR sgRNA for cacna1c (Cav1.2; L-type), SEQ ID NO:4 (guide GCAGACGGGGGCAGCGCCATTGG; sgRNA chemistry not given here; the letters are possibly those of the target site)”, in series [3], the “expression of ectodermin and myf5 on co-depletion in kcnh6 depleted embryos” value is given as “rescued expression”.

As to `COC(=O)C1=C(C)NC(C)=C(C(=O)OC)C1c1ccccc1[N+](=O)[O-]` [nifedipine], in series [3] (setting [4]), the “embryos with absent ectodermin” value came out at 16±7% and the “embryos with myf5 lost” value is recorded as 16±1%. Moreover, in series [3] (setting [5]), the “embryos with absent ectodermin” value is given as 17±3% and the “embryos with myf5 lost” value stood at 18±5%.

With `[Ba+2].[Cl-].[Cl-]` [Barium, Barium chloride], the “embryos that failed to complete gastrulation” value in series [1] (depolarizing treatment at blastula/gastrula stages (stage 8-12), barium chloride 20 mM or KCl 20 mM, ±SEM) is 37±3%. Besides, in series [3] (depolarized embryos, stage 10), the “markers of dorsal (gsc, nodal3) and ventral mesoderm (vent2)” value is “unaffected”; the “paraxial mesoderm fates (myoD, myf5, tbxt)” value is recorded as “lost”. Moreover, the “embryos with misplacement of organs relative to the left-right axis (defective organ situs)” value in series [2] (depolarizing treatment at blastula/gastrula stages, scored at stage 45, ±SEM) amounted to 23±2%.

As for “cacna1g: CRISPR sgRNA for cacna1g (Cav3.1; T-type), SEQ ID NO:5 (guide GGTTAATGGCTCTCAGCGGGCGG; sgRNA chemistry not given here; the letters are possibly those of the target site)”, in series [3], the “expression of ectodermin and myf5 on co-depletion in kcnh6 depleted embryos” value was “no rescue”.

Turning to `CC(C)[C@@H]1NC(=O)[C@H](C)OC(=O)[C@@H](C(C)C)NC(=O)[C@@H](C(C)C)OC(=O)[C@H](C(C)C)NC(=O)[C@H](C)OC(=O)[C@@H](C(C)C)NC(=O)[C@@H](C(C)C)OC(=O)[C@H](C(C)C)NC(=O)[C@H](C)OC(=O)[C@@H](C(C)C)NC(=O)[C@@H](C(C)C)OC1=O` [valinomycin], in series [1] (kcnh6 CR embryos treated with valinomycin 2 nM, stage 8-12), the “gastrulation defect in kcnh6 CR embryos” value was 16±7%.

Source of the values: patent US20240018470A1, “METHOD OF MANIPULATING PLURIPOTENCY IN CELLS” (YALE UNIVERSITY, priority 2022, published 2024).
